Experimental data as given in PubChem BioAssay AID2060489 (Molecular Pharmacology Branch, DTP, NCI, 2025).
“And” between values parts separate entries of the source, which are not always exact repeats. Equal entries are not always repeated.

Tested on: 922993-354-T-J3-PDC complex spheroids, viability
Assay: Anticancer human tumor 922993-354-T-J3-PDC patient-derived endometrial carcinoma cell line growth inhibition [GQUAD]
Conditions: for viability, T/C: stronger effect = lower value; active = viability on the fitted dose curve at most 10% of control; inactive = the rest
From the text: DNA G-quadruplex Stabilizer Agents in Combinations in Complex Spheroids
A high-throughput screen of multi-cell type tumor spheroids was designed to identify active combinations of DNA G-quadruplex stabilizer agents and targeted small molecules. Complex spheroids include a stromal component modeled by human endothelial cells (HUVEC) and fibroblasts modeled by human mesenchymal stem cells (MSCs). The concentration ranges selected for each drug and investigational agent were based upon clinically achievable concentrations if the clinical Cmax of the agent was known.
Compounds. The drugs and investigational agents: pidnarulex (CX-5461; NSC782164), APTO-253 (NSC789042), BRACO-19 (NSC847499), peposertib (NSC802822), ceralasertib (NSC780249), elimusertib (NSC800525), camonsertib (NSC841442), AZD-1390 (NSC803789), olaparib (NSC753686), talazoparib (NSC767125), ART-558 (NSC835418), sotorasib (NSC818433), MRTX-1133 (NSC836407), SN-38 (NSC673596), topotecan (NSC609699), etoposide (NSC141540), doxorubicin (NSC123127), gemcitabine (NSC613327), 5-fluorouracil (NSC19893), paclitaxel (NSC125973), vemurafenib (NSC761431), panobinostat (NSC761190), R-306465 (JNJ-16241199; NSC773264), adavosertib (NSC754352), TP-3654 (NSC805149), carboplatin (NSC241240), KSQ-4279 (NSC840948), and staurosporine (NSC755774) were obtained from the National Cancer Institute (NCI) Developmental Therapeutics Program Chemical Repository (34). The FDA-approved anticancer drug set is available from the NCI Developmental Therapeutics Program. […] The stock solutions were prepared in dimethyl sulfoxide (DMSO, Sigma-Aldrich, St. Louis, MO, cat. D2650) at 800-fold the tested concentration and stored at -70 degrees C prior to their use. All drugs and investigational agents were tested over a range starting from a high concentration at or near the clinical Cmax and decreasing in half-log increments. If the clinical Cmax for an agent had not been determined, the highest concentration tested was 10 microM.
2.3 Cell Culture. All cells were maintained in an incubator at 37 degrees C and 5% CO2 with 95% humidity. The PDC lines were cultured according to standard operating procedures established by the NCI PDMR. All PDCs were thawed and cultured in Matrigel-coated flasks prepared with a working solution of 1X Ham's F-12 nutrient mix, without supplementation (Invitrogen, cat. 11765054), 100 U/mL penicillin-streptomycin (Invitrogen, cat. 15140122), and 2.5% Matrigel (Corning Inc., cat. 354248) for the first three passages. The 857933-349-R-J2-PDC line was cultured in 6C/Colon 1B media, which includes advanced DMEM/F-12 (Thermo Fisher Scientific, cat. 12634028), 10 mM HEPES (Thermo Fisher Scientific, cat. 15630080), 1X GlutaMAX supplement (Thermo Fisher Scientific, cat. 35050061), 0.1 mg/mL primocin (InvivoGen, cat. ant-pm-2), 10% defined fetal bovine serum, heat inactivated (HyClone Laboratories Inc., cat. SH30070.03HI), 50% L-WRN conditioned media (ATCC, cat. CRL-3276), 1.25 mM N-Acetyl-L-cysteine (Sigma-Aldrich, cat. A9165), 10 mM nicotinamide (Sigma-Aldrich, cat. N0636), 1X B-27 supplement (Thermo Fisher Scientific, cat. 17504044), 1X N-2 supplement (Thermo Fisher Scientific, cat. 17502048), 10 microM Y-27632 dihydrochloride (Tocris Bioscience, cat. 1254), and 50 ng/mL human EGF recombinant protein (Thermo Fisher Scientific, cat. PHG0311). The 485176-168-R4-J1-PDC line was cultured in Panc media, which includes all 6C/Colon 1B media components plus 100 ng/mL human FGF-10 (Thermo Fisher Scientific, cat. 100-26), 500 nM SB-431542 (Selleckchem, cat. S1067), and gastrin (Tocris, cat. 3006).
[…]
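Also: spheroids exposed to compounds for seven days.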

Cn1ncnc1[C@H]1c2n[nH]c(=O)c3cc(F)cc(c23)N[C@@H]1c1ccc(F)cc1
inactive: viability, T/C (compound 0.000999 µM) 93.3% and 98.8% and 108% | viability, T/C (compound 0.00316 µM) 101% and 78.7% and 113% | viability, T/C (compound 0.00999 µM) 76.9% and 101% and 85.8% | viability, T/C (compound 0.0316 µM) 87.9% and 74.9% and 91.4% | viability, T/C (compound 0.0999 µM) 68.9% and 72% and 78.9% | viability, T/C (compound 0.316 µM) 54.5% and 62% and 59.1%
> 0.316 µM: IC50 (curve of compound)

C=CC(=O)N1CCN(c2nc(=O)n(-c3c(C)ccnc3C(C)C)c3nc(-c4c(O)cccc4F)c(F)cc23)C(C)C1 (stereo not drawn) + Cc1[nH]c2ccc(F)cc2c1-c1nc2c3cccnc3c3ncccc3c2[nH]1
inactive: viability, T/C (second compound 0.0316 µM, first compound 0.0316 µM) 94.6% | viability, T/C (second compound 0.0316 µM, first compound 0.1 µM) 86% | viability, T/C (second compound 0.0316 µM, first compound 0.316 µM) 94.8% | viability, T/C (second compound 0.0316 µM, first compound 1 µM) 101% | viability, T/C (second compound 0.0316 µM, first compound 3.16 µM) 111% | viability, T/C (second compound 0.0316 µM, first compound 10 µM) 116% | viability, T/C (second compound 0.1 µM, first compound 0.0316 µM) 106% | viability, T/C (second compound 0.1 µM, first compound 0.1 µM) 69.4% | viability, T/C (second compound 0.1 µM, first compound 0.316 µM) 99.3% | viability, T/C (second compound 0.1 µM, first compound 1 µM) 127% | viability, T/C (second compound 0.1 µM, first compound 3.16 µM) 92% | viability, T/C (second compound 0.1 µM, first compound 10 µM) 98.7% | viability, T/C (second compound 0.316 µM, first compound 0.0316 µM) 130% | viability, T/C (second compound 0.316 µM, first compound 0.1 µM) 95% | viability, T/C (second compound 0.316 µM, first compound 0.316 µM) 117% | viability, T/C (second compound 0.316 µM, first compound 1 µM) 118% | viability, T/C (second compound 0.316 µM, first compound 3.16 µM) 114% | viability, T/C (second compound 0.316 µM, first compound 10 µM) 113% | viability, T/C (second compound 1 µM, first compound 0.0316 µM) 92.9% | viability, T/C (second compound 1 µM, first compound 0.1 µM) 124% | viability, T/C (second compound 1 µM, first compound 0.316 µM) 133% | viability, T/C (second compound 1 µM, first compound 1 µM) 112% | viability, T/C (second compound 1 µM, first compound 3.16 µM) 93.6% | viability, T/C (second compound 1 µM, first compound 10 µM) 107% | viability, T/C (second compound 3.16 µM, first compound 0.0316 µM) 114% | viability, T/C (second compound 3.16 µM, first compound 0.1 µM) 91.2% | viability, T/C (second compound 3.16 µM, first compound 0.316 µM) 105% | viability, T/C (second compound 3.16 µM, first compound 1 µM) 104% | viability, T/C (second compound 3.16 µM, first compound 3.16 µM) 96.2% | viability, T/C (second compound 3.16 µM, first compound 10 µM) 88% | viability, T/C (second compound 10 µM, first compound 0.0316 µM) 88.7% | viability, T/C (second compound 10 µM, first compound 0.1 µM) 103% | viability, T/C (second compound 10 µM, first compound 0.316 µM) 81.3% | viability, T/C (second compound 10 µM, first compound 1 µM) 90.7% | viability, T/C (second compound 10 µM, first compound 3.16 µM) 103% | viability, T/C (second compound 10 µM, first compound 10 µM) 87.1%
> 10 µM: IC50 (curve of first compound, second compound 0.0316 µM) | IC50 (curve of first compound, second compound 0.1 µM) | IC50 (curve of first compound, second compound 0.316 µM) | IC50 (curve of first compound, second compound 1 µM) | IC50 (curve of first compound, second compound 3.16 µM) | IC50 (curve of first compound, second compound 10 µM)

COc1ccc([C@@H](O)c2cc(-c3ncnc4cc(N5CCOCC5)ccc34)c(F)cc2Cl)nn1
inactive: viability, T/C (compound 0.0316 µM) 93.2% and 109% and 98.5% | viability, T/C (compound 0.1 µM) 99.4% and 61.7% and 94.8% | viability, T/C (compound 0.316 µM) 103% and 87% and 92.8% | viability, T/C (compound 1 µM) 93.4% and 83.4% and 86.5% | viability, T/C (compound 3.16 µM) 92% and 94.4% and 85% | viability, T/C (compound 10 µM) 69.3% and 69% and 52.9%
> 10 µM: IC50 (curve of compound)

O=C(NO)c1cnc(N2CCN(S(=O)(=O)c3ccc4ccccc4c3)CC2)nc1
inactive: viability, T/C (compound 0.0316 µM) 98.1% and 88.5% and 95.5% | viability, T/C (compound 0.1 µM) 71.3% and 68.2% and 82.4% | viability, T/C (compound 0.316 µM) 56% and 62% and 55.4% | viability, T/C (compound 1 µM) 36.7% and 32.2% and 32%
0.381 µM and 0.447 µM and 0.422 µM: IC50 (curve of compound)
active: viability, T/C (compound 10 µM) 0.53% (2×) and 0.58%
3.07% and 3.39% and 4.12%: viability, T/C (compound 3.16 µM)
